Test system: MSH3
Assay: QPCR assay for levels of MSH3 upon compound treatment in HEK293T or AD293 cells (fold-change of MSH3 transcript, EC50 of MSH3 downregulation; total MSH3 exons 13/14, exons 20/21; Table 8)
Type: cell-based
Settings: Homo sapiens, fold-change of the MSH3 transcript, normalized to GAPDH; for mrna remaining at 1 µM: 1 μM compound; for mrna remaining at 10 µM: 10 μM compound
Summary of the method: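 HEK293T or AD293 cells were treated at 1 μM and […]; RNA-to-cDNA qPCR used TaqMan assays for total MSH3 (exons 13/14, exons 20/21) and poison-exon junctions exon 13/PE14A and exon 20/PE21A. Transcript levels were normalized to GAPDH.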

| SMILES | mrna remaining at 1 µM | mrna remaining at 10 µM |
| --- | --- | --- |
| CC(C)(O)Cn1ncc(-c2cc(F)c3c(c2)C(=O)N(c2ccc(OC4CC(C)(C)NC(C)(C)C4)nn2)C3)n1 [Compound 635, 4-fluoro-6-(2-(2-hydroxy-2-methylpropyl)-2H-1,2,3-triazol-4-yl)-2-(6-((2,2,6,6-tetramethylpiperidin-4-yl)oxy)pyridazin-3-yl)isoindolin-1-one] | 54% | 117% |
| [2H]C([2H])([2H])n1cc(-c2ccc3c(c2)C(=O)N(c2ccc(N(C)[C@H]4C[C@]5(C)CC[C@](C)(C4)N5)nn2)C3)cn1 [Compound 387, 2-(6-(((1R,3s,5S)-1,5-dimethyl-8-azabicyclo[3.2.1]octan-3-yl)(methyl)amino)pyridazin-3-yl)-6-(1-(methyl-d3)-1H-pyrazol-4-yl)isoindolin-1-one] | 96% | 63% |
| Cc1nn(C)cc1-c1cnc2c(c1)C(=O)N(c1ccc(OC3CCC(C)(C)NC(C)(C)C3)nn1)C2 (stereo not drawn) [Compound 479, 3-(1,3-dimethyl-1H-pyrazol-4-yl)-6-(6-((2,2,7,7-tetramethylazepan-4-yl)oxy)pyridazin-3-yl)-6,7-dihydro-5H-pyrrolo[3,4-b]pyridin-5-one] | 119% | 56% |
| Cc1nn(C)cc1-c1cnc2c(c1)C(=O)N(c1ccc(O[C@H]3C[C@@]4(C)CC[C@](C)(N4)[C@H]3F)nn1)C2 [Compound 181, 3-(1,3-dimethyl-1H-pyrazol-4-yl)-6-(6-(((1S,2R,3S,5R)-2-fluoro-1,5-dimethyl-8-azabicyclo[3.2.1]octan-3-yl)oxy)pyridazin-3-yl)-6,7-dihydro-5H-pyrrolo[3,4-b]pyridin-5-one] | 92% | 103% |
| CN(c1ccc(N2Cc3c(F)cc(-n4nccn4)cc3C2=O)nn1)[C@H]1C[C@]2(C)CC[C@](C)(C1)N2 [Compound 673, 2-(6-(((1R,3s,5S)-1,5-dimethyl-8-azabicyclo[3.2.1]octan-3-yl)(methyl)amino)pyridazin-3-yl)-4-fluoro-6-(2H-1,2,3-triazol-2-yl)isoindolin-1-one] | 91% | 33% |
| Cc1nn(C)cc1-c1cc(F)c2c(c1)C(=O)N(c1ccc(N(C)C3CC(C)(C)NC(C)(C)C3)nn1)C2 [Compound 275, 6-(1,3-dimethyl-1H-pyrazol-4-yl)-4-fluoro-2-(6-(methyl(2,2,6,6-tetramethylpiperidin-4-yl)amino)pyridazin-3-yl)isoindolin-1-one] | 79% | 26% |
| Cc1nn(C)nc1-c1cc(F)c2c(c1)C(=O)N(c1ccc(N3CCC(N(C)C)CC3)nn1)C2 [Compound 672, 6-(2,5-dimethyl-2H-1,2,3-triazol-4-yl)-2-(6-(4-(dimethylamino)piperidin-1-yl)pyridazin-3-yl)-4-fluoroisoindolin-1-one] | 95% | 74% |
| Cc1nn(C)nc1-c1cnc2c(c1)C(=O)N(c1ccc(N3CC4CCC3CN4)nn1)C2 (stereo not drawn) [Compound 563, 6-(6-(2,5-diazabicyclo[2.2.2]octan-2-yl)pyridazin-3-yl)-3-(2,5-dimethyl-2H-1,2,3-triazol-4-yl)-6,7-dihydro-5H-pyrrolo[3,4-b]pyridin-5-one] | 104% | 35% |
| Cc1nn(C)nc1-c1cnc2c(n1)C(=O)N(c1ccc(OC3CC(C)(C)NC(C)(C)C3)nn1)C2 [Compound 624, 3-(2,5-dimethyl-2H-1,2,3-triazol-4-yl)-6-(6-((2,2,6,6-tetramethylpiperidin-4-yl)oxy)pyridazin-3-yl)-6,7-dihydro-5H-pyrrolo[3,4-b]pyrazin-5-one] | 60% | 12% |
| Cn1nc(Cl)c(-c2cc3c(cn2)CN(c2ccc(O[C@H]4C[C@]5(C)CC[C@](C)(C4)N5)nn2)C3=O)n1 [Compound 460, 6-(5-chloro-2-methyl-2H-1,2,3-triazol-4-yl)-2-(6-(((1R,3s,5S)-1,5-dimethyl-8-azabicyclo[3.2.1]octan-3-yl)oxy)pyridazin-3-yl)-2,3-dihydro-1H-pyrrolo[3,4-c]pyridin-1-one] | 80% | 25% |
| Cc1nn(C)nc1-c1cnc2c(c1)C(=O)N(c1ccc(N3C[C@H]4CC[C@@H](C3)N4)nn1)C2 [Compound 568, 6-(6-((1R,5S)-3,8-diazabicyclo[3.2.1]octan-3-yl)pyridazin-3-yl)-3-(2,5-dimethyl-2H-1,2,3-triazol-4-yl)-6,7-dihydro-5H-pyrrolo[3,4-b]pyridin-5-one] | 77% | 46% |
| Cc1nn(C)nc1-c1ncc2c(n1)C(=O)N(c1ccc(O[C@H]3C[C@]4(C)CC[C@](C)(C3)N4)nn1)C2 [Compound 592, 2-(2,5-dimethyl-2H-1,2,3-triazol-4-yl)-6-(6-(((1R,3s,5S)-1,5-dimethyl-8-azabicyclo[3.2.1]octan-3-yl)oxy)pyridazin-3-yl)-5,6-dihydro-7H-pyrrolo[3,4-d]pyrimidin-7-one] | 90% | 54% |
| Cc1nn(C)nc1-c1cc(F)c2c(c1)C(=O)N(c1ccc(N3CC4CCC(C3)N4)nn1)C2 [Compound 658, 2-(6-(3,8-diazabicyclo[3.2.1]octan-3-yl)pyridazin-3-yl)-6-(2,5-dimethyl-2H-1,2,3-triazol-4-yl)-4-fluoroisoindolin-1-one] | 132% | 51% |
| Cc1nn(C)nc1-c1cc(F)c2c(c1)C(=O)N(c1ccc(N3C[C@@H](C)NC[C@@H]3C)nn1)C2 [Compound 674, 6-(2,5-dimethyl-2H-1,2,3-triazol-4-yl)-2-(6-((2S,5R)-2,5-dimethylpiperazin-1-yl)pyridazin-3-yl)-4-fluoroisoindolin-1-one] | 98% | 49% |
| Cc1nn(C)nc1-c1cnc2c(c1)C(=O)N(c1ccc(N3CCC4(CCCN4)CC3)nn1)C2 [Compound 603, 6-(6-(1,8-diazaspiro[4.5]decan-8-yl)pyridazin-3-yl)-3-(2,5-dimethyl-2H-1,2,3-triazol-4-yl)-6,7-dihydro-5H-pyrrolo[3,4-b]pyridin-5-one] | 155% | 94% |
| Cc1nn(C)nc1-c1cnc2c(c1)C(=O)N(c1ccc(S[C@H]3C[C@]4(C)CC[C@](C)(C3)N4)nn1)C2 [Compound 611, 3-(2,5-dimethyl-2H-1,2,3-triazol-4-yl)-6-(6-(((1R,3s,5S)-1,5-dimethyl-8-azabicyclo[3.2.1]octan-3-yl)thio)pyridazin-3-yl)-6,7-dihydro-5H-pyrrolo[3,4-b]pyridin-5-one] | 90% | 79% |
| CN(c1ccc(N2Cc3c(C#N)cc(-c4nn(C)nc4Cl)cc3C2=O)nn1)C1C[C@]2(C)CC[C@](C)(C1)N2 (stereo partly drawn) [Compound 685, 6-(5-chloro-2-methyl-2H-1,2,3-triazol-4-yl)-2-(6-(((1R,5S)-1,5-dimethyl-8-azabicyclo[3.2.1]octan-3-yl)(methyl)amino)pyridazin-3-yl)-1-oxoisoindoline-4-carbonitrile] | 24% | 20% |
| Cc1nc(C)c(-c2cnc3c(c2)C(=O)N(c2cnc(N(C)[C@H]4C[C@]5(C)CC[C@](C)(C4)N5)nn2)C3)s1 [Compound 200, 6-(3-(((1R,3s,5S)-1,5-dimethyl-8-azabicyclo[3.2.1]octan-3-yl)(methyl)amino)-1,2,4-triazin-6-yl)-3-(2,4-dimethylthiazol-5-yl)-6,7-dihydro-5H-pyrrolo[3,4-b]pyridin-5-one] | 53% | 53% |

From patent US20260315464A1, “COMPOSITIONS, METHODS, AND SYSTEMS FOR MODULATING SPLICING OF MSH3” (REVIR THERAPEUTICS, INC., priority 2023, published 2026)
